Where two headings read alike, the source gives them in different places.
How the values were obtained:
Format in all cases: in vivo
[1] = system: green peach aphid (Myzus persicae); experiment: Myzus persicae test (spray treatment of infested cabbage leaves)
From the text: (§1) The expected action for a given combination of two active compounds can be calculated as follows, using the formula of S. R. Colby, Weeds 15 (1967), 20-22: • If • X is the kill rate, expressed as % of the untreated control, when employing active compound A at an application rate of m g/ha or in a concentration of in ppm, • Y is the kill rate, expressed as % of the untreated control, when employing active compound B at an application rate of n g/ha or in a concentration of n ppm and • E is the kill rate, expressed as % of the untreated control, when employing active compounds A and B at application rates of m and n g/ha or in a concentration of m and n ppm, • then
(§2) If the actual kill rate exceeds the calculated value, the action of the combination is superadditive, i.e. a synergistic effect is present. In this case, the actually observed kill rate must exceed the value calculated using the above formula for the expected kill rate (E).
(§3) Solvent: 78 parts by weight of acetone • • 1.5 parts by weight of dimethylformamide
(§4) Emulsifier: 0.5 part by weight of alkylaryl polyglycol ether
(§5) To produce a suitable preparation of active compound, 1 part by weight of active compound is mixed with the stated amounts of solvent and emulsifier, and the concentrate is diluted with emulsifier-containing water to the desired concentration.
Cabbage leaves (Brassica oleracea) which are heavily infested by the green peach aphid (Myzus persicae) are treated by spraying with the active compound preparation of the desired concentration.
After the desired period of time, the kill in % is determined. 100% means that all of the aphids have been killed; 0% means that none of the aphids have been killed. The kill rates determined are entered into Colby's formula.

[2] = system: armyworm (Spodoptera frugiperda); experiment: Spodoptera frugiperda larvae test (sprayed cabbage leaves); details: Spodoptera frugiperda, single active compound
From the text: as §1, §2, §3, §4, §5
Cabbage leaves (Brassica oleracea) are treated by being sprayed with the preparation of active compound of the desired concentration and are populated with the armyworm (Spodoptera frugiperda) while the leaves are still moist.
After the desired period of time, the kill in % is determined. 100% means that all caterpillars have been killed; 0% means that none of the caterpillars have been killed. The kill rates determined are entered, into Colby's formula.

[3] = system: larvae of the mustard beetle (Phaedon cochleariae); experiment: Phaedon cochleariae larvae test (sprayed cabbage leaves); details: single active compound
From the text: as §1, §2, §3, §4, §5
Cabbage leaves (Brassica oleracea) are treated by spraying with the active compound preparation of the desired concentration and populated with larvae of the mustard beetle (Phaedon cochleariae) while the leaves are still moist.
After the desired period of time, the kill in % is determined. 100% means that all beetle larvae have been killed; 0% means that none of the beetle larvae have been killed. The kill rates determined are entered into Colby's formula.

[4] = system: greenhouse red spider mite (Tetranychus urticae); experiment: Tetranychus test, OP-resistant/spray treatment (bean leaf discs); details: single active compound
From the text: as §1, §2, §3, §4, §5
Discs of bean leaves (Phaseolus vulgaris) which are infested by all stages of the greenhouse red spider mite (Tetranychus urticae) are sprayed with an active compound preparation of the desired concentration.
After the desired period of time, the effect in % is determined. 100% means that all of the spider mites have been killed; 0% means that none of the spider mites have been killed.

[5] = Myzus persicae, 144 h, 0.16 g/ha, single active compound, 6 d, read-out: Kill in % after 6 d
[6] = 144 h, 6 d, read-out: Kill in % after 6 d
[7] = Myzus persicae, 144 h, single active compound, 6 d, read-out: Kill in % after 6 d
[8] = Phaedon cochleariae, 144 h, 6 d, read-out: Kill in % after 6 d
[9] = Tetranychus urticae, foliar, 48 h, 2 d, read-out: Kill in % after 2 d
[10] = Tetranychus urticae, foliar, 48 h, 4 g/ha, 2 d, read-out: Kill in % after 2 d
[11] = Myzus persicae, 24 h, after 1 d, read-out: Kill in % after 1d
[12] = 48 h, 2 d, read-out: Kill in % after 2 d
[13] = Phaedon cochleariae, 144 h, 20 g/ha, 6 d, read-out: Kill in % after 6 d
[14] = Myzus persicae, 24 h, 0.16 g/ha, after 1 d, read-out: Kill in % after 1d
[15] = Tetranychus urticae, foliar, 144 h, 20 g/ha, 6 d, read-out: Kill in % after 6 d
[16] = Tetranychus urticae, foliar, 144 h, 6 d, read-out: Kill in % after 6 d
[17] = Tetranychus urticae, foliar, 144 h, 4 g/ha, 6 d, read-out: Kill in % after 6 d
[18] = Phaedon cochleariae, 48 h, 20 g/ha, 2 d, read-out: Kill in % after 2 d

`CCOC(=O)OC1=C(c2cc(C)ccc2C)C(=O)N[C@]12CC[C@@H](OC)CC2` [spirotetramat] gave a pest or weed control at 0.16 g/ha [1, 5] of 0%.

Work on `Cc1cc(C(F)(C(F)(F)F)C(F)(F)F)ccc1NC(=O)c1cccc(I)c1C(=O)NC(C)(C)CS(C)(=O)=O` [flubendiamide, Flubendiamide] yielded a pest or weed control at 4 g/ha [2, 6] of 33% and a pest or weed control at 0.8 g/ha [1, 7] of 0%.

In the case of `CC1(C)[C@H](C=C(Cl)Cl)[C@H]1C(=O)OCc1c(F)c(F)cc(F)c1F` [transfluthrin], the pest or weed control at 4 g/ha [2, 6] is reported as 33%.

`CCc1nn(C)c(C(=O)NCc2ccc(C(C)(C)C)cc2)c1Cl` [tebufenpyrad, Tebufenpyrad] was tested, and the pest or weed control at 100 g/ha [3, 8] was 0%, the pest or weed control at 0.8 g/ha [4, 9] was 0% and the pest or weed control at 4 g/ha [4, 10] was 70%. For the same molecule, the pest or weed control at 20 g/ha [1, 11] was 0%.

`CC(C)N1C(=O)N(c2ccccc2)CS/C1=N\C(C)(C)C` [buprofezin] showed a pest or weed control at 500 g/ha ([1]; Myzus persicae, 144 h, 500 g/ha, single active compound, 6 d, read-out: Kill in % after 6 d) of 0%.

For `CNC(=O)Oc1cc(C)c(SC)c(C)c1` [methiocarb], the pest or weed control at 100 g/ha ([3]; Phaedon cochleariae, 48 h, 2 d, read-out: Kill in % after 2 d) was 50% and the pest or weed control at 100 g/ha [2, 12] was 0%.

With milbemectin the “Kill in % after 6 d” value ([3]; 20 g/ha, 6 d) was 0%.

With `CS/C(C)=N\OC(=O)N(C)SN(C)C(=O)O/N=C(\C)SC` [thiodicarb] the pest or weed control at 100 g/ha ([1]; Myzus persicae, 24 h, 100 g/ha, after 1 d, read-out: Kill in % after 1d) was 0%.

For `O=C1C=C(N(Cc2ccc(Cl)nc2)CC(F)F)CO1` [4-{[(6-chloropyrid-3-yl)methyl](2,2-difluoroethyl)amino}furan-2(5H)-one], the pest or weed control at 4 g/ha [1, 11] was 70%.

`CNC(=O)Oc1cccc2c1OC(C)(C)C2` [carbofuran] gave a pest or weed control at 4 g/ha [2, 6] of 0%.

Molecule `CCOCn1c(-c2ccc(Cl)cc2)c(C#N)c(Br)c1C(F)(F)F` [chlorfenapyr] has a pest or weed control at 100 g/ha [2, 12] of 50%.

With `C/C(=N\C#N)N(C)Cc1ccc(Cl)nc1` [acetamiprid] the pest or weed control at 20 g/ha [3, 13] was 0% and the pest or weed control at 0.16 g/ha [1, 5] was 0%.

In the case of spinosad, the “Kill in % after 2 d” value ([3]; 4 g/ha, 2 d) is reported as 33% and the “Kill in % after 6 d” value ([4]; 20 g/ha, 6 d) is reported as 80%.

In the case of `CC(C)c1cc(Oc2ccccc2)cc(C(C)C)c1NC(=S)NC(C)(C)C` [diafenthiuron], the pest or weed control at 4 g/ha [4, 10] is reported as 0% and the pest or weed control at 20 g/ha [1, 11] is reported as 0%.

With spinetoram the “Kill in % after 2 d” value ([3]; 4 g/ha, 2 d) was 50%.

Molecule `CN1COCN(Cc2cnc(Cl)s2)/C1=N/[N+](=O)[O-]` [thiamethoxam] has a pest or weed control at 20 g/ha [3, 13] of 50%, a pest or weed control at 0.16 g/ha [1, 14] of 0% and a pest or weed control at 0.16 g/ha [1, 5] of 0%.

With `CC(=O)N1C(=O)N(NCc2cccnc2)Cc2cc(C(F)(C(F)(F)F)C(F)(F)F)ccc21` [pyrifluquinazone] the pest or weed control at 100 g/ha ([4]; Tetranychus urticae, foliar, 144 h, 100 g/ha, 6 d, read-out: Kill in % after 6 d) was 0%.

With abamectin the “Kill in % after 6 d” value ([3]; 0.16 g/ha, 6 d) was 0%, the “Kill in % after 2 d” value ([4]; 4 g/ha, 2 d) was 0% and the “Kill in % after 1d” value ([1]; 0.16 g/ha, after 1 d) was 0%. For the same molecule, the “Kill in % after 6 d” value ([1]; 0.16 g/ha, single active compound, 6 d) was 0%.

`O=C(NC(=O)c1ccccc1Cl)Nc1ccc(OC(F)(F)F)cc1` [triflumuron] gave a pest or weed control at 4 g/ha [2, 6] of 17%.

`Cc1cc(C)c(C2=C(OC(=O)CC(C)(C)C)C3(CCCC3)OC2=O)c(C)c1` [spiromesifen] showed a pest or weed control at 20 g/ha ([4]; Tetranychus urticae, foliar, 48 h, 20 g/ha, 2 d, read-out: Kill in % after 2 d) of 0% and a pest or weed control at 0.8 g/ha [1, 7] of 0%.

`CC1(C)C(/C=C/C(=O)OC(C(F)(F)F)C(F)(F)F)C1C(=O)OC(C#N)c1cccc(Oc2ccccc2)c1` (stereo not shown) [acrinathrin] gave a pest or weed control at 0.8 g/ha ([2]; 144 h, 0.8 g/ha, 6 d, read-out: Kill in % after 6 d) of 0%.

Work on `O=C(NC(=O)c1c(F)cccc1F)Nc1ccc(Oc2ccc(C(F)(F)F)cc2Cl)cc1F` [flufenoxuron] yielded a pest or weed control at 20 g/ha [2, 6] of 33%.

For `COC(=O)N(C(=O)N1COC2(C(=O)OC)Cc3cc(Cl)ccc3C2=N1)c1ccc(OC(F)(F)F)cc1` (stereo not shown) [indoxacarb], the pest or weed control at 0.8 g/ha ([3]; Phaedon cochleariae, 144 h, 0.8 g/ha, 6 d, read-out: Kill in % after 6 d) was 0% and the pest or weed control at 100 g/ha [2, 12] was 50%.

In the case of `N#Cc1ccc(CC(=NNC(=O)Nc2ccc(OC(F)(F)F)cc2)c2cccc(C(F)(F)F)c2)cc1` (mixture of isomers) [metaflumizone], the pest or weed control at 100 g/ha [2, 12] is reported as 0% and the pest or weed control at 4 g/ha [1, 7] is reported as 0%.

Work on `N#C/N=C1\SCCN1Cc1ccc(Cl)nc1` [thiacloprid] yielded a pest or weed control at 20 g/ha [3, 13] of 0%, a pest or weed control at 0.16 g/ha [1, 14] of 0% and a pest or weed control at 0.16 g/ha [1, 5] of 0%.

`Cc1c(F)c(F)c(COC(=O)[C@@H]2[C@H](/C=C(\Cl)C(F)(F)F)C2(C)C)c(F)c1F` (racemic) [tefluthrin] showed a pest or weed control at 20 g/ha [3, 13] of 33% and a pest or weed control at 4 g/ha [1, 11] of 70%.

For `CC[S+]([O-])c1c(C#N)nn(-c2c(Cl)cc(C(F)(F)F)cc2Cl)c1N` (stereo not shown) [ethiprole], the pest or weed control at 0.16 g/ha ([3]; Phaedon cochleariae, 144 h, 0.16 g/ha, 6 d, read-out: Kill in % after 6 d) was 0%, the pest or weed control at 20 g/ha [4, 15] was 0% and the pest or weed control at 20 g/ha [1, 11] was 0%.

Molecule `CCC(C)(C)C(=O)OC1=C(c2ccc(Cl)cc2Cl)C(=O)OC12CCCCC2` [spirodiclofen] has a pest or weed control at 0.8 g/ha [4, 16] of 20% and a pest or weed control at 4 g/ha [1, 7] of 0%.

With `CC(c1ccc(C(F)(F)F)nc1)S(C)(=O)=NC#N` (stereo not shown) [sulfoxaflor] the pest or weed control at 4 g/ha [4, 17] was 0%.

Molecule `COc1cccc(C(=O)NN(C(=O)c2cc(C)cc(C)c2)C(C)(C)C)c1C` [methoxyfenozide] has a pest or weed control at 20 g/ha [2, 12] of 33%.

Work on `O=C(NC(=O)c1c(F)cccc1F)Nc1ccc(OC(F)(F)C(F)OC(F)(F)F)c(Cl)c1` (stereo not shown) [novaluron] yielded a pest or weed control at 100 g/ha [3, 8] of 0%.

Work on `Cc1nn(C)c(Oc2ccccc2)c1C=NOCc1ccc(C(=O)OC(C)(C)C)cc1` [fenpyroximate, Fenpyroximate] yielded a pest or weed control at 20 g/ha [3, 18] of 0%.

`CC1(C)[C@H](/C=C(\Cl)C(F)(F)F)[C@@H]1C(=O)O[C@H](C#N)c1cccc(Oc2ccccc2)c1` [gamma-cyhalothrin] was tested, and the pest or weed control at 0.8 g/ha [4, 9] was 0% and the pest or weed control at 0.032 g/ha ([1]; Myzus persicae, 24 h, 0.032 g/ha, after 1 d, read-out: Kill in % after 1d) was 0%.

Work on `CC1(C)C(C=C(Cl)Cl)C1C(=O)OC(C#N)c1cccc(Oc2ccccc2)c1` (stereo not shown) [cypermethrin] yielded a pest or weed control at 4 g/ha ([3]; Phaedon cochleariae, 48 h, 4 g/ha, 2 d, read-out: Kill in % after 2 d) of 17%, a pest or weed control at 20 g/ha [4, 15] of 0% and a pest or weed control at 0.8 g/ha [1, 11] of 70%.

Molecule `CN/C(=N\[N+](=O)[O-])NCC1CCOC1` (stereo not shown) [dinotefuran] has a pest or weed control at 20 g/ha [3, 18] of 17%, a pest or weed control at 4 g/ha [1, 11] of 0% and a pest or weed control at 4 g/ha [1, 7] of 0%.

`Cc1cc(F)c(-n2nc(C(F)(F)F)nc2N)cc1[S+]([O-])CC(F)(F)F` (stereo not shown) [1-{2-fluoro-4-methyl-5-[(2,2,2-trifluoroethyl)sulphinyl]phenyl}-3-(trifluoromethyl)-1H-1,2,4-triazole-5-amine] showed a pest or weed control at 100 g/ha [3, 8] of 0%, a pest or weed control at 0.8 g/ha [4, 16] of 0% and a pest or weed control at 4 g/ha [4, 17] of 80%.

`O=[N+]([O-])/N=C1\NCCN1Cc1ccc(Cl)nc1` [imidacloprid] showed a pest or weed control at 20 g/ha [3, 13] of 33% and a pest or weed control at 0.16 g/ha [1, 14] of 0%.
